Results from patent publication US6353011B1, “1,2-dithiolane derivatives” (University of Mississippi, priority 1999, dated 2002).
Blank lines part the entries; values can stand above or below the compound they belong to.

Legend:
[1] = Ulrich et al., U.S. Pat. No. 5,728,735; cited from earlier work
[2] = tested on: Human keratinocytes; experiment: Cell toxicity by lactate dehydrogenase release in keratinocyte culture; assay type: cell-based; details: highest concentration tested
[3] = tested on: 3T3 L 1 fibroblasts; experiment: 3T3 L1 fibroblast proliferation (cell numbers); assay type: cell-based; details: 3T3L1 cells
Protocol: (§1) This example illustrates the effects of compound 87 and troglitazone on proliferation of 3T3 L 1 fibroblasts and differentiation into adipocytes. 3T3L1 cells were incubated with varying concentrations of either compound 87 or troglitazone and the effects on cell proliferation determined by measurement of cell numbers. […] The compounds of the present invention are capable of preventing cell proliferation without inducing adipogenesis and represent useful agents for treatment and prevention of obesity.

[4] = tested on: insulin resistant obese Zucker rats; experiment: Serum insulin and glucose in insulin resistant obese Zucker rats; assay type: in vivo, rat; details: oral 100 mg/kg/day for one week, versus placebo controls
Excerpt: The drug was suspended in a mixture of 0.5% carboxymethylcellulose and administered by gavage. […] After one week, blood samples were obtained for measurement of serum insulin levels by radioimmunoassay and serum glucose levels by glucose oxidase method. […] The effects of a higher dose of orally administered Rezulin® (troglitazone) on serum insulin and glucose levels in male obese Zucker rats as reported by Fujiwara et al., Diabetes 37.1549 are shown for comparison purposes.

[5] = tested on: 3T3 L 1 fibroblasts; experiment: 3T3 L1 differentiation into adipocytes (morphology, oil red O staining); assay type: cell-based; details: 3T3L1 cells
Protocol: as §1

[6] = tested on: Human MCF-7 breast cancer cells; experiment: MCF-7 breast cancer cell proliferation (cell numbers); assay type: cell-based; details: MCF-7, varying concentrations
[7] = tested on: Human HT-29 colon cancer cells; experiment: HT-29 colon cancer cell proliferation (cell numbers); assay type: cell-based
[8] = tested on: insulin resistant obese Zucker rats; experiment: Triglyceride levels in insulin resistant obese Zucker rats; assay type: in vivo, rat; details: oral 100 mg/kg/day for one week
Excerpt: The drug was suspended in a mixture of 0.5% carboxymethylcellulose and administered by gavage.

[9] = tested on: Human keratinocytes; experiment: Human keratinocyte proliferation (cell numbers); assay type: cell-based; details: varying concentrations
[10] = tested on: Human MDA-MB-23 1 breast cancer cells; experiment: MDA-MB-231 breast cancer cell proliferation (cell numbers); assay type: cell-based
Protocol: […]. […] Human MDA-MB-23 1 breast cancer cells were incubated with varying concentrations of either compound 86 or troglitazone and the effects on cell proliferation determined by measurement of cell numbers. […]. Compound 86 inhibits growth of human breast cancer cells.

[11] = molecular target: T1, PPAR gamma (Mus musculus, UniProt P37238); experiment: In vitro molecular assays of PPAR gamma activation
T1 sequence (P37238 1-505): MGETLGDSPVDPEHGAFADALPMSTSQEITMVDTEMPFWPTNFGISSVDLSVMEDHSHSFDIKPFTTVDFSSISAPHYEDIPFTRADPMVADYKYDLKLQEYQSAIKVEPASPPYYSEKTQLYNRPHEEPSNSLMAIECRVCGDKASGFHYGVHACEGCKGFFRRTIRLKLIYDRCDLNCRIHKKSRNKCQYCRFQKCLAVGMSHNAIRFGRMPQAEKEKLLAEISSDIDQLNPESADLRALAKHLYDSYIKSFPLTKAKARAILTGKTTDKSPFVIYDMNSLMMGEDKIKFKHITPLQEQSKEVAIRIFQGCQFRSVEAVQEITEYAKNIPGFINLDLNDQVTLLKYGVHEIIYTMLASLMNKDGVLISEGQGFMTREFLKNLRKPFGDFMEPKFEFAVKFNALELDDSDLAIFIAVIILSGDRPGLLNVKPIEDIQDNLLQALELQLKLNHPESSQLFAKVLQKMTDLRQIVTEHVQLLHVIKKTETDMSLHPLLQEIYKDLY

Structure (SMILES): O=C(O)CCCC[C@@H]1CCSS1 [R-lipoic acid]
anti-inflammatory activity, factor stronger than that of the racemate [1]: 10

Structure (SMILES): Cc1c(C)c2c(c(C)c1O)CCC(C)(COc1ccc(CC3SC(=O)NC3=O)cc1)O2 (centres unmarked) [troglitazone, reference compound]
cell toxicity (release of lactate dehydrogenase in the culture medium) [2]: associated with cell toxicity

Structure (SMILES): CN(CCOc1ccc(CC2SC(=O)NC2=O)cc1)C(=O)CCCCC1CCSS1 (centres unmarked) [compound 12]
potency of inhibition of fibroblast proliferation compared with troglitazone [3]: in a more potent fashion than troglitazone
fibroblast proliferation (cell numbers) ([3]; varying concentrations): dose dependent inhibition of fibroblast proliferation
serum glucose levels ([4]; glucose oxidase method): reductions in glucose levels
serum insulin levels ([4]; radioimmunoassay): reductions in serum insulin levels
adipogenesis and conversion of the fibroblasts to adipocytes [5]: potent inducers of adipogenesis
cell proliferation (cell numbers) [6]: dose dependent inhibition of malignant cell proliferation
potency in inhibiting malignant cell proliferation compared with troglitazone ([7]; HT-29): more potent than troglitazone
cell proliferation (cell numbers) ([7]; HT-29, varying concentrations): dose dependent inhibition of cell proliferation
triglyceride levels [8]: potent ability to reduce triglyceride levels
cell toxicity (release of lactate dehydrogenase in the culture medium) [2]: without inducing cell toxicity
cell proliferation (cell numbers) [9]: dose dependent inhibition of cell proliferation

Structure (SMILES): O=C(CCCCC1CCSS1)NCCOc1ccc(CC2SC(=O)NC2=O)cc1 (centres unmarked) [compound 86]
potency in inhibiting malignant cell proliferation compared with troglitazone ([10]; MDA-MB-23 1): more potent than troglitazone
cell proliferation (cell numbers) ([10]; MDA-MB-23 1, varying concentrations): dose dependent inhibition of cell proliferation

activation of PPAR gamma [11]: did not activate PPAR gamma
Structure (SMILES): CN(C(=O)CCCCC1CCSS1)c1ccc(CC2SC(=O)NC2=O)cc1 (centres unmarked) [compound 87]
adipogenesis and conversion of the fibroblasts to adipocytes [5]: but not compound 87 induced adipogenesis
